Measured values taken from ChEMBL document CHEMBL1139645, “Action of a novel pyrrolo[1,2-c][1.3]benzodiazepine on the viability of Jurkat and neuronal/glial cells” (2005).

What was measured:
[1] = Effect of compound on cell viability in non-transformed neuronal/glial cells measured as percent reduction of MTT at 570 nm O.D. and exposure to 100 uM NMDA; Control value 0.56 %; type: functional, Rattus norvegicus
Jurkat = test: Effect of compound on cell viability in human leukemic Jurkat cells measured as percent reduction of MTT at 570 nm O.D.; Control value 0.47 %; type: functional
[2] = Effect of compound on cell viability in non-transformed neuronal/glial cells measured as percent reduction of MTT at […] O.D.; Control value 0.56 %; type: functional, Rattus norvegicus
[3] = Effect of compound on cell viability in non-transformed neuronal/glial cells measured as percent reduction of MTT at 570 nm O.D. at 100 uM; Control value 0.56 %; type: functional, Rattus norvegicus

| Structure (SMILES) | MTT reduction [1] [O.D] | MTT reduction (Jurkat) [O.D] | MTT reduction [2] [O.D] | MTT reduction [3] [O.D] |
| --- | --- | --- | --- | --- |
| Nc1ccccc1C(=O)c1ccc[nH]1 | 0.3 | 0.39 | 0.65 |  |
| SC1=Nc2ccccc2Cc2cccn21 | 0.17 | 0.22 | 0.58 |  |
| O=c1c2ccccc2nc(S)n2cccc12 | 0.28 | 0.41 | 0.62 |  |
| Oc1c2nccc-2c(S)nc2ccccc12 | 0.25 | 0.45 | 0.55 |  |
| Nc1ccccc1Cc1ccc[nH]1 | 0.22 | 0.34 | 0.38 |  |
| CN[C@H](CC(=O)O)C(=O)O [N-METHYL-D-ASPARTIC ACID (NMDA)] |  |  |  | 0.29 |
